What all share (format): cell-based
Assay [1] has as its system A549 NSCLC cell line. As to the kind of experiment: AlamarBlue proliferation assay, A549. The following applies: Homo sapiens; for pIC50: A549, AlamarBlue proliferation, 72 hours, read-out: IC50. The procedure:
(§1) Cytotoxicity is measured using fluorescence spectrophotometry.
(§2) TKI sensitivity was determined in NSCLC cell lines. Vandetanib and sunitinib sensitivity was measured in seven NSCLC cell lines. Erlotinib sensitivity was measured in nine NSCLC cell lines. An AlamarBlue proliferation assay at 72 hours was used to measure TKI sensitivity. GraphPad Prism 4.01 was used to determine IC50 values. Expression of seven miRNAs was measured by qRT-PCR. qRT-PCR data were normalized to the reference RNU6 and fold changes were computed against the selected sensitive cell line for each drug. A two-sided z-test was used to compute the p-values for the fold changes. A score was calculated for each miRNA/drug combination to see whether a miRNA can determine resistance across cell lines. Fold changes were first ternarized and assigned a value of +1, −1, or 0. Elevated miRNA expression relative to control (fold change>1 AND p-value<0.05) was assigned a value of +1. Reduced miRNA expression relative to control (fold change<1 AND p-value<0.05) was assigned a value of −1. Any non-significant fold change (p-value>0.05) was assigned a value of 0. These values were then multiplied by a value of +1 or −1 as assigned by the resistance characteristics of the cell line: Resistant cell lines were assigned a value=+1. Sensitive cell lines were assigned a value=−1. The final score was computed by the sum of the points for the cells lines divided by the number of cell lines (the reference cell line was not used in computing the scores).
On the technique in general: Alamar Blue is a resazurin reagent that responds to reducing activity.

Assay [2] has as its system H358 NSCLC cell line. Kind of assay: AlamarBlue proliferation assay, H358. To be noted: Homo sapiens; for pIC50: NCI-H358, H358, AlamarBlue proliferation, 72 hours, read-out: IC50. The protocol:
as §1, §2

For assay [3], the system named is H460 NSCLC cell line. Kind of assay: AlamarBlue proliferation assay, H460. The following applies: Homo sapiens; for pIC50: NCI-H460, H460, AlamarBlue proliferation, 72 hours, read-out: IC50. The protocol:
as §1, §2

For assay [4], the system named is H520 NSCLC cell line. Kind of assay: AlamarBlue proliferation assay, H520. The following applies: Homo sapiens; for pIC50: NCI-H520, H520, AlamarBlue proliferation, 72 hours, read-out: IC50. The procedure:
as §1, §2

Assay [5] deals with H1703 NSCLC cell line. Kind of assay: AlamarBlue proliferation assay, H1703. To be noted: Homo sapiens; for pIC50: NCI-H1703, H1703, AlamarBlue proliferation, 72 hours, read-out: IC50. The protocol:
as §1, §2

In assay [6] the test system is H2122 NSCLC cell line. As to the kind of experiment: AlamarBlue proliferation assay, H2122. The following applies: Homo sapiens; for pIC50: NCI-H2122, H2122, AlamarBlue proliferation, 72 hours, read-out: IC50. The procedure:
as §1, §2

Assay [7] deals with HCC4006 NSCLC cell line. As to the kind of experiment: AlamarBlue proliferation assay, HCC4006. To be noted: Homo sapiens, 72 hours. The protocol:
as §1
as §2, with “The final score was computed by the sum of the points for the cells lines divided by the number of cell lines (the reference cell line was not used in computing the scores).” left out

The test system of assay [8] is H2073 NSCLC cell line. Kind of assay: AlamarBlue proliferation assay, H2073. The following applies: NCI-H2073, 72 hours. The procedure:
as §1
as §2, with “The final score was computed by the sum of the points for the cells lines divided by the number of cell lines (the reference cell line was not used in computing the scores).” left out

Assay [9] has as its system NSCLC cell lines classified as resistant. As to the kind of experiment: AlamarBlue proliferation assay, NSCLC lines classified as resistant. The following applies: read-out: IC50s of the remaining lines classified as resistant.
Description: (§4) Cells in the log phase of expansion are harvested and counted. The cells are then adjusted to a density of 1×10^4 cells/ml, though the optimum cell density may vary between cell types. […] The AlamarBlue® reagent is mixed, and then aseptically added to the cells in an amount around 10% of the well volume. Cells are incubated in the presence of the reagent from 4-8 hours. Cytotoxicity is measured using fluorescence spectrophotometry. Absorbance is measured at 570 nm and 600 nm blanked in a plate containing medium only. To calculate the percent difference in reduction between treated and control cells in Percentage difference between treated and control cells
(§5) TKI sensitivity was determined in NSCLC cell lines. […] An AlamarBlue proliferation assay at 72 hours was used to measure TKI sensitivity. GraphPad Prism 4.01 was used to determine IC50 values.
In assay [10] the test system is H1703 Sunitinib resistant line A (H1703 SRa). Kind of assay: Alamar blue assay, H1703 SRa. To be noted: Homo sapiens, NCI-H1703, read-out: Sunitinib IC50(μM), Example 3, mean of three experiments. The protocol:
(§3) GraphPad Prism 4.01 was used to calculate IC50 values. […] GenoSensor GenoExplorer™ microRNA Expression System (Sanger miRNA Registry version 14 containing probes for 904 mature miRNAs and 450 pre-miRNAs) was used to screen miR expression. Differences in miRs expression between the parent and resistant cells were identified using at test with Benjamini-Hochberg correction and validated by qPCR. A score was calculated for each miRNA to determine whether a miRNA can predict SR.

The test system of assay [11] is H1703 Sunitinib resistant line B (H1703 SRb). Kind of assay: Alamar blue assay, H1703 SRb. The following applies: Homo sapiens, NCI-H1703, read-out: Sunitinib IC50(μM), Example 3, mean of three experiments. The protocol: as §3
The subject of assay [12] is HCC827 NSCLC cell line. As to the kind of experiment: AlamarBlue proliferation assay, HCC827. To be noted: Homo sapiens, 72 hours.
Description: One method of measuring IC50 by AlamarBlue proliferation that may be used in determining an IC50 is as follows:
as §4, §5
Setting [13] is: range across resistant NSCLC lines, 72 hours.

pIC50: −log10 of the molar value. Like-named read-outs stand apart in the source and are kept apart here.

Consider `C#Cc1cccc(Nc2ncnc3cc(OCCOC)c(OCCOC)cc23)c1` [Erlotinib, N-(3-ethynylphenyl)-6,7-bis(2-methoxyethoxy)quinazolin-4-amine], for which the pIC50 in [1] was under 4.30; in assay [2], 4.54; in [3], 4.41; in assay [4] it was under 4.30; in [5], under 4.30; in assay [6], 4.91. Also, the pIC50 was 7.70 in assay [7], 5.01 in assay [8] and at most 5.01 in assay [9] (72 h).
For `CCN(CC)CCNC(=O)c1c(C)[nH]c(/C=C2\C(=O)Nc3ccc(F)cc32)c1C` [Sunitinib, N-[2-(diethylamino)ethyl]-5-[(Z)-(5-fluoro-1,2-dihydro-2-oxo-3H-indol-3-ylidine)methyl]-2,4-dimethyl-1H-pyrrole-3-carboxamide], the IC50 in assay [1] (read-out: Sunitinib IC50(μM), A549, Example 3, mean of three experiments) stood at 5.5 µM; in assay [2] (NCI-H358, read-out: Sunitinib IC50(μM), H358, Example 3, mean of three experiments) it was 14.2 µM; in assay [3] (NCI-H460, read-out: Sunitinib IC50(μM), H460, Example 3, mean of three experiments) it was 5.6 µM; in [4] (NCI-H520, read-out: Sunitinib IC50(μM), H520, Example 3, mean of three experiments), 8.2 µM; in assay [5] (NCI-H1703, read-out: Sunitinib IC50(μM), H1703 control, Example 3, mean of three experiments) it was 0.13 µM; in assay [6] (NCI-H2122, read-out: Sunitinib IC50(μM), H2122, Example 3, mean of three experiments), 4.8 µM. Further, the IC50 was 7.6 µM in assay [10] and 4.37 µM in assay [11]. For the same compound, the pIC50 is 5.26 in assay [1]; 4.85 in assay [2]; 5.25 in assay [3]; 5.09 in assay [4]; 6.29 in [5]; 5.32 in [6]. The pIC50 in assay [9] (setting [13]) is 4.85 to 5.32.
Take `COc1cc2c(Nc3ccc(Br)cc3F)ncnc2cc1OCC1CCN(C)CC1` [Vandetanib]: the pIC50 in [1] is 5.01; in assay [2] it was 5.38; in [3] it was 4.86; in assay [4], 4.92; in assay [5] it was 5.68; in [6], 5.23. Further, the pIC50 is 6.26 in assay [12] and 4.86 to 5.68 in assay [9] (setting [13]).

Usually IC50 stands for the concentration at which inhibition is half-maximal.

The values are drawn from patent US20120095030A1, “METHODS AND KITS TO PREDICT THERAPEUTIC OUTCOME OF TYROSINE KINASE INHIBITORS” (THE TRANSLATIONAL GENOMICS RESEARCH INSTITUTE, priority 2009, published 2012).
